Assay results: patent publication US7605184B2, “Method of anesthesia” (priority 2008, dated 2009)
Where two headings read alike, the source gives them in different places.

How the values were obtained:
[1] = currently used anesthetics; cited from earlier work
[2] = degradation by desiccated (dry) carbon dioxide absorbents at 40° C.; type: physicochemical; conditions: for % Degr Per min: 40° C.
Method: Drying was accomplished by placing wet absorbent in a large flask receiving 1-1.5 L/min of oxygen (dry; no water vapor) for 4 days. The flask rested in an incubator at 50° C. The absorbent contained in the flask was weighed repeatedly (to essentially constant weight loss).
As above, all studies were conducted at 40° C. Desiccated (dry) absorbent (grams indicated) was placed in a 600 mL flask, and 100 or 200 mL of anesthetic at the indicated concentration was inserted. […] Values for % degraded per minute are given as the average and standard deviation (SD).

[3] = degradation by wet (normal) carbon dioxide absorbents at 40° C., gas chromatography; type: physicochemical; conditions: for % Degraded per Minute: 100 mL anesthetic
Method: Nine milligrams of the compound of formula (1) were placed in each of three 600 ml flasks containing 100 g of soda lime and maintained at 40° C. The 40° C. temperature is chosen to mimic that generated by the exothermic reaction of carbon dioxide with absorbent in a system wherein all gases are rebreathed. Soda lime contains sodium hydroxide as well as approximately 80% calcium hydroxide. A control flask contained the compound of formula (1) but no soda lime. Samples were taken at various timepoints and analyzed by gas chromatography using a flame ionization detector. […] It will be noted that the Y-axis is on a log scale so that the depletion is quite dramatic.
The procedure was identical to that of Example 1 except that an absorbent containing only calcium hydroxide as the base was used. This absorbent is marketed under the trademark Amsorb®.
The dramatic decrease in degradation with substitution of Amsorb® for soda lime applies to other absorbents that are composed of calcium hydroxide but contain minimal or no monovalent bases, LoFloSorb® and Drägersorb® Free. The general procedure of Example 1 was repeated using these two commercially available absorbents. […] All studies were conducted at 40° C. In all cases, the absorbents were “wet” (contained approximately 15% water by weight). The data in the table were obtained using the protocol set forth above wherein 100 g of absorbent was placed in a 600 mL flask, and 100 mL of anesthetic at the indicated concentration was inserted. Each study was done in triplicate. […] Values for % degraded per minute are given as the average and standard deviation (SD).

murine models = conditions: cited from earlier work
rats = experiment: MAC in rats; type: in vivo; conditions: five rats, 37° C. (normothermic)
Excerpt: (§1) Clearly another significant property of an anesthetic is its ability to effect anesthesia in the first place. […] The minimum alveolar concentration of anesthetic at which 50% of subjects move in response to a noxious stimulus is designated “MAC.” In the case of 30-60 year old adult humans, the MAC values are 0.06 atm (i.e., 6%) for desflurane, 0.0115 atm (1.15%) for isoflurane and 0.0185 atm (1.85%) for sevoflurane). An alternative measurement similar to MAC that is based on the righting reflex in mice gave a value for the compound of formula (1) of 0.05 atm (5%). The value obtained in this alternative assay approximates but is usually a bit less than MAC.
In an additional experiment, conducted at 37° C. which is normothermic, five rats were anesthetized using the compound of formula (1) and the MAC value found was 8.34±0.84%.

mice = experiment: loss of righting reflex in mice; type: in vivo; conditions: four mice, closed system with Amsorb, rectal temperature 30° C. (hypothermic)
Excerpt: as §1
In a closed system employing Amsorb® as the absorbent, four mice were anesthetized using the compound of formula (1). The righting reflex was lost at 3.22±0.54% of formula (1). The rectal temperature of the mice at the end of this experiment was 30° C. which is hypothermic for mice. Hypothermia decreases anesthetic requirement (Eger, E. I. II and Johnson, B. H.; Anesth Analg (1987) 66:974-976), and thus this experiment probably underestimated the concentration producing the loss of righting reflex.

[4] = blood/gas partition coefficient; type: physicochemical
Excerpt: One highly desirable property of an inhaled anesthetic is that it permits rapid recovery once the administration of the anesthetic is halted. Typically, during surgical procedures, the subject is continuously administered the anesthetic, and it is helpful if the subject can recover as quickly as possible as soon as administration is stopped. The length of time required for such recovery is a function of the solubility of the anesthetic in the blood, which mimics solubility in the brain. Thus, anesthetics with very low blood/gas partition coefficients are highly desirable. The blood/gas partition coefficient for desflurane is 0.45; for sevoflurane is 0.65 and for isoflurane is even higher. The blood/gas partition coefficient for the compound of formula (1) is only 0.21, making it highly advantageous as permitting more rapid recovery than any of the currently used anesthetics.

mice and rats = experiment: recovery, CNS irritation and survival after anesthesia in mice and rats; type: in vivo
[5] = Strum et al. 1987; cited from earlier work
[6] = dry LoFloSorb 50 g, 200 mL injected
[7] = dry Amsorb 100 g, 100 mL injected
[8] = dry Drägersorb Free 25 g, 100 mL injected
[9] = dry LoFloSorb 25 g, 100 mL injected

SMILES: FC(F)OC(F)C(F)(F)F (centres unmarked) [Desflurane, desflurane, reference compound]
- blood/gas partition coefficient [1]: 0.45
- % Degr Per min ([2]; dry Amsorb 50 g, 100 mL injected): −0.1%
- % Degr Per min [2, 6]: 0.5%

SMILES: FC(F)OC(C(F)(F)F)C(F)(F)F [Formula (1), CHF2—O—CH(CF3)2]
- degradation in flasks containing soda lime (FIG. 2) ([3]; 9 mg, 100 g soda lime, 600 ml flask, after 30 min): essentially complete degradation
- percentage of compound in the flask (FIG. 3) ([3]; 100 g Amsorb (calcium hydroxide only), 30 min interval): remained constant
- % Degraded per Minute ([3]; wet Amsorb 100 g): −0.05%
- % Degraded per Minute ([3]; wet Drägersorb Free 100 g): 0.102%
- % Degraded per Minute ([3]; wet LoFloSorb 100 g): 0.2%
- % Degraded per Minute ([3]; wet Soda Lime 100 g): 25.0%
- anesthetic quality (murine models; Speers et al., J. Med. Chem. 1971): good anesthetic
- side effects (murine models; murine models, Speers et al. 1971): undesirable side effects
- MAC value (rats): 8.34±0.84%
- concentration at which the righting reflex was lost (mice): 3.22±0.54%
- blood/gas partition coefficient [4]: 0.21
- % Degr Per min ([2]; dry Amsorb 20 g, 100 mL injected): 0.7%
- % Degr Per min [2, 7]: 2.7%
- rate of degradation on repeated addition of anesthetic (FIG. 4) ([2]; dry Amsorb, three flasks, repeated additions): progressively decreased
- % Degr Per min [2, 8]: 0.28%
- % Degr Per min [2, 9]: 55.0%
- % Degr Per min [2, 6]: 40.7%
- survival (mice and rats; 24 hours after anesthesia, mice and rats): All survived for 24 hours in apparent good health
- time to awake after administration of the anesthetic was stopped (mice and rats; mice and rats): 2 to 3 min
- irritation of the central nervous system (mice and rats; mice and rats anesthetized): In neither of these cases was there irritation of the central nervous system

SMILES: FCOC(C(F)(F)F)C(F)(F)F [Sevoflurane, sevoflurane, reference compound]
- % Degraded per Minute ([3]; wet Drägersorb Free 100 g): −0.058%
- blood/gas partition coefficient [1]: 0.65
- degradation in soda lime [5]: 13 % per hour
- % Degr Per min [2, 7]: 5.01%
- % Degr Per min [2, 8]: 0.52%
- % Degr Per min [2, 9]: 38.5%
